Source: patent US9023813B2 (Nutek Pharma Ltd., priority 2012, dated 2015)

Key:
[1] = Pharmacokinetics: plasma concentrations of prodrug and propofol after intravenous infusion (LC/MS/MS); conditions: for Mean concentration of prodrug and propofol in rat plasma after intravenous infusion administration / AUClast / AUCinf / MRTinf / Cmax / Tmax / t1/2 / CLp / Vdss: analyte = administered compound; for AUClast: to last detected concentration; for Mean Concentration of Propofol in Rat Plasma After Intravenous Administration: analyte = propofol released from the administered compound; for Pro-drug behaviour (release of propofol in vivo): rats, releasing the propofol in a matter of minutes after infusion; for AUCinf / MRTinf: extrapolated to infinity; for Cmax / Tmax / t1/2: rat plasma, IV infusion; for CLp: total body clearance, dose/AUCinf; for Vdss: volume of distribution
Description: (§1) Blood samples were to be taken pre-dose, during dose and post dose at designated intervals, with the blood quickly processed and stored at −70° C. until analysis.
(§2) Formulations were prepared on the morning of the dosing day and each was passed through a 0.22 μm filter prior to being administered to animals. A standard dose of 0.168 mmol/Kg per analog was administered to each of the rats. […] Analog stability in the formulations was verified by preparing each formulation and harvesting 200 μL aliquots at 0, 1, 2 and 8 hr while standing at room temperature. After harvesting, each sample was immediately frozen in dry ice until analysis; concentrations of test compounds in the samples were examined by HPLC-UV.
(§3) The animals were surgically prepared with indwelling cannula, double cannulation in carotid artery and jugular vein for i.v. infusion. The anesthetic pentobarbital was used during the surgery, and the animals were allowed to recover 3-5 days after surgery before the formulation was dosed. The dose formulation was administered intravenously via the jugular vein cannula. The 16.8 μmol/mL formulation was administered i.v. at a rate of 1 mL/Kg/min for 10 min.
Approximately 0.20 mL blood was collected at each designated time point from carotid artery via a catheter. A total of 12 plasma samples were taken from each animal: 1 pre-dose; 2 during the dose (5 into the 10 min infusion and one just prior termination of the 10 min infusion) and 9 post-infusion at 2, 5, 15, 30 min and 1, 2, 3, 4, and 6 hr post-dose. All blood samples were transferred into plastic microcentrifuge tubes containing 5 μL of K2-EDTA (0.5M) as anti-coagulant and placed on ice until processed for plasma. Blood samples were processed for plasma by centrifugation at approximately 5° C. Plasma samples were then stored in 1.5 mL tubes, quick frozen over dry ice and kept at −70±10° C. until LC/MSMS analysis.
For each, a minimum of 6 standard point curve runs in duplicates, and minimum of 5 standards were back calculated to within ±20% of their nominal concentrations. The LLOQ of each test article in plasma was established and 6 QC samples were included in assay runs of samples to ensure assay performance.
Data Analysis. Plasma concentration versus time data was analyzed by non-compartmental approaches using the WinNonlin software program (version 5.2, Pharsight, Mountain View, Calif.) and the pharmacokinetic parameters T½, CL, Vss, AUC(0-t), AUC(0-inf), MRT, and graphs of plasma concentration versus time calculated for each.

[2] = Solubility determination in D2O by 1H NMR with DSS internal standard; conditions: for solubility: D2O, water, thermodynamic from solid
Description: Thus the soapy-like solutions obtained were diluted until opalescent and diluted further until the opalescence visually disappeared.

male Sprague Dawley rats = assay: Clinical observations of rats during administration of propofol analogs in the pharmacokinetics study; conditions: time post-10 min i.v. infusion; 0.168 mmol/Kg
Description: as §1, §2, §3

| Structure (SMILES) | Mean concentration of prodrug and propofol in rat plasma after intravenous infusion administration ([1]; Time (h) 0) | Mean concentration of prodrug and propofol in rat plasma after intravenous infusion administration ([1]; Time (h) 0.083) [nM] | Mean concentration of prodrug and propofol in rat plasma after intravenous infusion administration ([1]; Time (h) 0.167) [nM] | Mean concentration of prodrug and propofol in rat plasma after intravenous infusion administration ([1]; Time (h) 0.2) | Mean concentration of prodrug and propofol in rat plasma after intravenous infusion administration ([1]; Time (h) 0.25) | Mean concentration of prodrug and propofol in rat plasma after intravenous infusion administration ([1]; Time (h) 0.417) | Mean concentration of prodrug and propofol in rat plasma after intravenous infusion administration ([1]; Time (h) 0.667) | Mean concentration of prodrug and propofol in rat plasma after intravenous infusion administration ([1]; Time (h) 1.166) | Mean concentration of prodrug and propofol in rat plasma after intravenous infusion administration ([1]; Time (h) 2.166) | Mean concentration of prodrug and propofol in rat plasma after intravenous infusion administration ([1]; Time (h) 3.166) | Mean concentration of prodrug and propofol in rat plasma after intravenous infusion administration ([1]; Time (h) 4.166) | Mean concentration of prodrug and propofol in rat plasma after intravenous infusion administration ([1]; Time (h) 6.166) | AUClast [1] [µM·h] | Mean Concentration of Propofol in Rat Plasma After Intravenous Administration ([1]; Time (h) 0) | Mean Concentration of Propofol in Rat Plasma After Intravenous Administration ([1]; Time (h) 4.166) | Pro-drug behaviour (release of propofol in vivo) [1] | Relative solubility [2] | Rats recovered at (male Sprague Dawley rats) | AUCinf [1] [µM·h] | MRTinf [1] [min] | further results |
| --- | --- | --- | --- | --- | --- | --- | --- | --- | --- | --- | --- | --- | --- | --- | --- | --- | --- | --- | --- | --- | --- |
| CC(C)c1cccc(C(C)C)c1OC(=O)OCCCO[C@H]1O[C@H](CO)[C@@H](O)[C@H](O)[C@H]1O [Compound 33] | BQL | 16.5 | 23.1 | 9.59 nM | BQL | BQL | BQL | BQL | BQL | BQL | BQL | BQL | 0.00304 | BQL | BQL | very efficient pro-drugs | 5.2 (8.1)^4 | recovered at about 30 min |  |  | Mean Concentration of Propofol in Rat Plasma After Intravenous Administration ([1]; Time (h) 6.166): BQL |
| CC(C)c1cccc(C(C)C)c1OC(=O)OCCCO[C@@H]1O[C@H](CO)[C@@H](O)[C@H](O)[C@H]1O [Compound 12] | BQL | 4.11 | 6.78 | BQL | BQL | BQL | BQL | BQL | BQL | BQL | BQL | BQL | 0.000773 | BQL | BQL | very efficient pro-drugs | 5.0 | recovered at about 30 min | 0.00122 | 6 | Mean Concentration of Propofol in Rat Plasma After Intravenous Administration ([1]; Time (h) 6.166): BQL |
| CC(C)c1cccc(C(C)C)c1OC(=O)OCCCO[C@@H]1O[C@H](CO)[C@@H](OC2O[C@H](CO)[C@@H](O)[C@H](O)[C@H]2O)[C@H](O)[C@H]1O (stereo partly drawn) [Compound 25] | BQL | 34401 | 68360 | 22658 nM | 9074 nM | 997 nM | 97.1 nM | 16.2 nM | 2.09 nM | BQL | BQL | BQL | 8.571 | BQL |  | very efficient pro-drugs | >20 | recovered at about 35 min | 8.574 | 4.62 | Cmax [1]: 68400 nM; Tmax [1]: 10.2 min; t1/2 [1]: 15.2 min; CLp [1]: 20.2 L/h/kg; Vdss [1]: 1.51 L/kg; solubility [2]: > 20 mM; Rats soporous at (male Sprague Dawley rats): Rats soporous at about 7 min and |
| CC(C)c1cccc(C(C)C)c1OC(=O)OCCO[C@H]1O[C@H](CO)[C@@H](O)[C@H](O)[C@H]1O [Compound 32] | BQL | 4.88 | 4.97 | 2.68 nM | BQL | BQL | BQL | BQL | BQL | BQL | BQL | BQL | 0.000657 | BQL |  | very efficient pro-drugs | 12.0 | recovered at about 26 min |  |  |  |
| CC(C)c1cccc(C(C)C)c1OC(=O)OCCO[C@@H]1O[C@H](CO)[C@@H](OC2O[C@H](CO)[C@@H](O)[C@H](O)[C@H]2O)[C@H](O)[C@H]1O (stereo partly drawn) [Compound 24] | BQL | 3200 | 7740 | 1029 nM | 751 nM | 36 nM | 11.2 nM | 3.01 nM | BQL | 4.2 nM | BQL | BQL | 0.786 | BQL |  | very efficient pro-drugs | >20 | recovered at about 30 min | 0.791 | 12.4 | Cmax [1]: 8100 nM; Tmax [1]: 8.4 min; t1/2 [1]: 53.2 min; CLp [1]: 348.2 L/h/kg; Vdss [1]: 120 L/kg; solubility [2]: > 20 mM |
